Data: patent US20170190671A1, “BIS(ARYL)CATECHOL DERIVATIVES AS HERBICIDES” (E I DU PONT DE NEMOURS AND COMPANY, priority 2014, published 2017)

Legend:
[1] = test system: sandbur (southern sandbur, Cenchrus echinatus); test: Test E postemergence; type: in vivo; conditions: scale 0 to 100
Method in brief: (§1)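 Preemergence: seeds in silt loam treated with compound in non-phytotoxic solvent with surfactant. Postemergence: plants at 1- to 4-leaf stage (2–18 cm) in peat-based medium sprayed likewise. Greenhouse 14–21 days, then visual rating vs controls, 0 (no effect) to 100 (complete control).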

[2] = test system: waterhemp_RES1 (ALS & Triazine resistant common waterhemp, Amaranthus rudis); test: Test E postemergence; type: in vivo; conditions: scale 0 to 100
Method in brief: as §1

[3] = test system: wild poinsettia (Euphorbia heterophylla); test: Test E postemergence; type: in vivo; conditions: scale 0 to 100
Method in brief: as §1

[4] = test system: horseweed (Conyza canadensis); test: Test E postemergence; type: in vivo; conditions: scale 0 to 100
Method in brief: as §1

[5] = test system: Italian ryegrass (Lolium multiflorum); test: Test E postemergence; type: in vivo; conditions: scale 0 to 100
Method in brief: as §1

[6] = test system: dayflower (Virginia (VA) dayflower, Commelina virginica); test: Test E postemergence; type: in vivo; conditions: scale 0 to 100
Method in brief: as §1

[7] = test system: barnyardgrass (Echinochloa crus-galli); test: Test E postemergence; type: in vivo; conditions: scale 0 to 100
Method in brief: as §1

[8] = test system: ragweed (common ragweed, Ambrosia elatior); test: Test E postemergence; type: in vivo; conditions: scale 0 to 100
Method in brief: as §1

[9] = test system: field bindweed (Convolvulus arvensis); test: Test E postemergence; type: in vivo; conditions: scale 0 to 100
Method in brief: as §1

[10] = test system: johnsongrass (Sorghum halepense); test: Test E preemergence; type: in vivo; conditions: scale 0 to 100
Method in brief: as §1

[11] = test system: wild poinsettia (Euphorbia heterophylla); test: Test E preemergence; type: in vivo; conditions: scale 0 to 100
Method in brief: as §1

[12] = test system: horseweed (Conyza canadensis); test: Test E preemergence; type: in vivo; conditions: 31 g ai/ha, scale 0 to 100
Method in brief: as §1

wild oat (Avenafatua) = test: Test D preemergence; type: in vivo, Avena fatua; conditions: scale 0 to 100
Source text: Seeds of plant species selected from bluegrass (annual bluegrass, Poa annua), blackgrass (Alopecurus myosuroides), canarygrass (Phalaris minor), chickweed (common chickweed, Stellaria media), cutleaf geranium (Geranium dissectum), galium (catchweed bedstraw, Galium aparine), downy bromegrass (Bromus tectorum), field poppy (Papaver rhoeas), field violet (Viola arvensis), green foxtail (Setaria viridis), deadnettle (henbit deadnettle, Lamium amplexicaule), Italian ryegrass (Lolium multiflorum), kochia (Kochia scoparia), lambsquarters (Chenopodium album), oilseed rape (Brassica napus), pigweed (Amaranthus retroflexus), chamomile (scentless chamomile, Matricaria inodora), Russian thistle (Salsola kali), speedwell (bird's-eye speedwell, Veronica persica), spring barley (Hordeum vulgare), spring wheat (Triticum aestivum), wild buckwheat (Polygonum convolvulus), wild mustard (Sinapis arvensis), wild oat (Avenafatua), wild radish (Raphanus raphanistrum), windgrass (Apera spica-venti), winter barley (Hordeum vulgare), and winter wheat (Triticum aestivum) were planted into a silt loam soil and treated preemergence with test chemicals formulated in a non-phytotoxic solvent mixture which included a surfactant.
At the same time, these species were planted in pots containing Redi-Earth® planting medium (Scotts Company, 14111 Scottslawn Road, Marysville, Ohio 43041) comprising spaghnum peat moss, vermiculite, wetting agent and starter nutrients and treated with postemergence applications of the test chemicals formulated in the same manner. Plants ranged in height from 2 to 18 cm (1- to 4-leaf stage). Treated plants and controls were maintained in a controlled growth environment for 14 to 21 days after which time all species were compared to controls and visually evaluated. Plant response ratings, summarized in Table D, are based on a scale of 0 to 100 where 0 is no effect and 100 is complete control. A dash (-) response means no test result.

Fc1cccc(Oc2ncc(C(F)(F)F)cn2)c1Oc1ncc(Cl)cn1 [Compound 42, 5-chloro-2-[2-fluoro-6-[[5-(trifluoromethyl)-2-pyrimidinyl]oxy]phenoxy]pyrimidine]
Plant response rating, Sandbur ([1]; 16 g ai/ha): 0 | Plant response rating, Sandbur ([1]; 31 g ai/ha): 0 | Plant response rating, Sandbur ([1]; 62 g ai/ha): 0 | Plant response rating, Sandbur ([1]; 125 g ai/ha): 10 | Plant response rating, Waterhemp_RES1 ([2]; 16 g ai/ha): 60 | Plant response rating, Waterhemp_RES1 ([2]; 31 g ai/ha): 75 | Plant response rating, Waterhemp_RES1 ([2]; 62 g ai/ha): 75 | Plant response rating, Waterhemp_RES1 ([2]; 125 g ai/ha): 90 | Plant response rating, Poinsettia, Wild ([3]; 16 g ai/ha): 50 | Plant response rating, Poinsettia, Wild ([3]; 31 g ai/ha): 60 | Plant response rating, Poinsettia, Wild ([3]; 62 g ai/ha): 70 | Plant response rating, Poinsettia, Wild ([3]; 125 g ai/ha): 70 | Plant response rating, Horseweed ([4]; 16 g ai/ha): 0 | Plant response rating, Horseweed ([4]; 31 g ai/ha): 0 | Plant response rating, Horseweed ([4]; 62 g ai/ha): 10 | Plant response rating, Horseweed ([4]; 125 g ai/ha): 10 | Plant response rating, Ryegrass, Italian ([5]; 16 g ai/ha): 0 | Plant response rating, Ryegrass, Italian ([5]; 31 g ai/ha): 10 | Plant response rating, Ryegrass, Italian ([5]; 62 g ai/ha): 20 | Plant response rating, Ryegrass, Italian ([5]; 125 g ai/ha): 40 | Plant response rating, Dayflower, VA ([6]; 16 g ai/ha): 35 | Plant response rating, Dayflower, VA ([6]; 31 g ai/ha): 50 | Plant response rating, Dayflower, VA ([6]; 62 g ai/ha): 70 | Plant response rating, Dayflower, VA ([6]; 125 g ai/ha): 75 | Plant response rating, Barnyardgrass ([7]; 16 g ai/ha): 0 | Plant response rating, Barnyardgrass ([7]; 31 g ai/ha): 0 | Plant response rating, Barnyardgrass ([7]; 62 g ai/ha): 10 | Plant response rating, Barnyardgrass ([7]; 125 g ai/ha): 20 | Plant response rating, Ragweed ([8]; 16 g ai/ha): 10 | Plant response rating, Ragweed ([8]; 31 g ai/ha): 25 | Plant response rating, Ragweed ([8]; 62 g ai/ha): 50 | Plant response rating, Ragweed ([8]; 125 g ai/ha): 60 | Plant response rating, Field Bindweed ([9]; 16 g ai/ha): 40 | Plant response rating, Field Bindweed ([9]; 31 g ai/ha): 50 | Plant response rating, Field Bindweed ([9]; 62 g ai/ha): 60 | Plant response rating, Field Bindweed ([9]; 125 g ai/ha): 70 | Plant response rating, Johnsongrass ([10]; 16 g ai/ha): 80 | Plant response rating, Johnsongrass ([10]; 31 g ai/ha): 80 | Plant response rating, Johnsongrass ([10]; 62 g ai/ha): 95 | Plant response rating, Johnsongrass ([10]; 125 g ai/ha): 100 | Plant response rating, Poinsettia, Wild ([11]; 16 g ai/ha): 20 | Plant response rating, Poinsettia, Wild ([11]; 31 g ai/ha): 20 | Plant response rating, Poinsettia, Wild ([11]; 62 g ai/ha): 80 | Plant response rating, Poinsettia, Wild ([11]; 125 g ai/ha): 100 | Plant response rating, Horseweed [12]: 0 | Plant response rating, Oat, Wild (wild oat (Avenafatua); 16 g ai/ha): 5 | Plant response rating, Oat, Wild (wild oat (Avenafatua); 31 g ai/ha): 5 | Plant response rating, Oat, Wild (wild oat (Avenafatua); 62 g ai/ha): 50 | Plant response rating, Oat, Wild (wild oat (Avenafatua); 125 g ai/ha): 95
